From patent US7737155B2, “Nitrogen-containing heterocyclic compounds and methods of use thereof” (Schering Corporation, priority 2005, dated 2010)

The molecules below were run against recombinant human nicotinic acid receptor (NAR) (Homo sapiens, UniProt Q8TDS4) (assay: Nicotinic Acid Receptor Assay: inhibition of forskolin-stimulated cAMP accumulation in CHO cells (MesoScale Discovery cAMP kit)). Settings: CHO cells expressing recombinant human NAR; forskolin-stimulated cAMP; read-out: NA EC50 camp.
recombinant human nicotinic acid receptor (NAR), sequence (Q8TDS4 whole entry): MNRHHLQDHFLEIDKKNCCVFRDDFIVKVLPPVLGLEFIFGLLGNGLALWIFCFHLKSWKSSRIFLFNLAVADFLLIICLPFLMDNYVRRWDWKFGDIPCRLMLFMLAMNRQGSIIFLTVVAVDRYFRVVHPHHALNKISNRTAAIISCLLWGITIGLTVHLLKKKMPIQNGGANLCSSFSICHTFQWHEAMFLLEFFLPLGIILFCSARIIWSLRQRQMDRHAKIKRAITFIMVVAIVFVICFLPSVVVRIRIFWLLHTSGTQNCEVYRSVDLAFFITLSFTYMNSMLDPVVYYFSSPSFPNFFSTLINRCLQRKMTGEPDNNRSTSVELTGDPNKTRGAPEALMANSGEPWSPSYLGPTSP
Format: cell-based
Description: The nicotinic acid receptor agonist activity of the inventive compounds was determined by following the inhibition of forskolin-stimulated cAMP accumulation in cells using the MesoScale Discovery cAMP detection kit following the manufacture's protocol. Briefly, Chinese Hamster Ovary (CHO) cells expressing recombinant human nicotinic acid receptor (NAR) were harvested enzymatically, washed 1× in phosphate buffered saline (PBS) and resuspended in PBS containing 0.5 mM IBMX at 3×10^6 cells/mL. Ten μL of cell suspension was added to each well of a 384-well plate which contained 10 μL of test compounds. Test compounds were diluted with PBS containing 6 μM of forskolin. Plates were incubated for 30 minutes at room temperature after the addition of cells. Lysis buffer containing cAMP-Tag was added to each well (10 μL/well) as per the manufacturer's protocol. Plates were then incubated from 45 minutes to overnight. Prior to reading, 10 μL of read buffer was added to each well, and the plate was read in a Sector 6000 plate imager. The signal was converted to cAMP concentration using a standard curve run on each plate.
For `CCc1cc(=O)oc2nc(OCc3ccc(-c4cccc(C(F)(F)F)c4)cc3F)[nH]c(=O)c12` [Compound 573], the EC50 was 100 to 1000 nM. With `O=c1[nH]c(=O)c2c(CCC#Cc3ccccc3)cc(=O)oc2[nH]1` [Compound 220] the EC50 was > 1000 nM. With `CCOC(=O)NOc1nc2oc(=O)cc(CCC3CCCC3)c2c(=O)[nH]1` [Compound 693] the EC50 was 100 to 1000 nM. `CCOc1nc2oc(=O)cc(CCC(C)C)c2c(=O)[nH]1` [Compound 686] gave an EC50 of 100 to 1000 nM. Work on `CCc1cc(=O)oc2nc(OCc3ocnc3C)[nH]c(=O)c12` [Compound 513] yielded an EC50 of 100 to 1000 nM. `CCc1cc(=O)oc2nc(OCCN3CCCCC3)[nH]c(=O)c12` [Compound 578] was tested, and the EC50 was > 1000 nM. `CCc1cc(=O)oc2nc(OC(C)c3ccc(-c4ccccc4)cc3F)[nH]c(=O)c12` (stereo not shown) [Compound 569] was tested, and the EC50 was 0.001 to 100 nM. `CCc1cc(=O)oc2nc(OCc3ccccc3-c3cccc(C)c3)[nH]c(=O)c12` [Compound 550] was tested, and the EC50 was > 1000 nM. `CCc1cc(=O)oc2nc(OCc3ccc(-c4ccccc4)cc3F)[nH]c(=O)c12` [Compound 518] showed an EC50 of 100 to 1000 nM. With `CCOC(=O)c1cccc(-c2ccccc2COc2nc3oc(=O)cc(CC)c3c(=O)[nH]2)c1` [Compound 547] the EC50 was 100 to 1000 nM. `Cn1c(=O)[nH]c(=O)c2c(CCC3CC3)cc(=O)oc21` [Compound 275] showed an EC50 of 100 to 1000 nM. For `CC1CCC(Cc2cc(=O)oc3[nH]c(=O)n(C4CCC4)c(=O)c23)CC1` (stereo not shown) [Compound 246], the EC50 was > 1000 nM. `CCCC/C=C/c1c(CC)c2c(=O)[nH]c(=O)[nH]c2oc1=O` [Compound 214] was tested, and the EC50 was > 1000 nM. `CCCCc1cc(=O)oc2nc(OCC#CCOC)[nH]c(=O)c12` [Compound 670] gave an EC50 of 0.001 to 100 nM. `CCc1cc(=O)oc2nc(OCC3CCCO3)[nH]c(=O)c12` (stereo not shown) [Compound 601] was tested, and the EC50 was > 1000 nM. For `CCc1cc(=O)oc2nc(OCC(C)(C)S(=O)(=O)c3ccc(Cl)cc3)[nH]c(=O)c12` [Compound 663], the EC50 was > 1000 nM. `CCc1cc(=O)oc2nc(OCc3ccc(C(F)(F)F)cn3)[nH]c(=O)c12` [Compound 545] gave an EC50 of 100 to 1000 nM. In the case of `CCc1cc(=O)oc2nc(O[C@H](C)C#CC(=O)OCc3ccccc3)[nH]c(=O)c12` [Compound 635], the EC50 is reported as > 1000 nM. `CCc1cc(=O)oc2nc(OCc3ccccc3-n3ccnc3)[nH]c(=O)c12` [Compound 570] was tested, and the EC50 was 100 to 1000 nM. `O=c1cc(CCCC2CC2)c2c(=O)n(C3CCC3)c(=O)[nH]c2o1` [Compound 224] was tested, and the EC50 was 0.001 to 100 nM. In the case of `O=C(NCCCc1cc(=O)oc2[nH]c(=O)[nH]c(=O)c12)OCc1ccccc1` [Compound 228], the EC50 is reported as > 1000 nM. Molecule `CCc1cc(=O)oc2nc(OCc3cc(Cl)cc(Cl)c3)[nH]c(=O)c12` [Compound 503] has an EC50 of 100 to 1000 nM. With `CCc1cc(=O)oc2nc(OC(C)c3ccccc3C(F)(F)F)[nH]c(=O)c12` (stereo not shown) [Compound 508] the EC50 was > 1000 nM. `CCCCc1cc(=O)oc2nc(OCC#CC(O)CC)[nH]c(=O)c12` (stereo not shown) [Compound 679] gave an EC50 of 0.001 to 100 nM. Molecule `Cc1cc(=O)oc2[nH]c(=O)n(C3CCC3)c(=O)c12` [Compound 252] has an EC50 of 0.001 to 100 nM. `CCc1cc(=O)oc2nc(OCc3c(-c4c(Cl)cccc4Cl)noc3C)[nH]c(=O)c12` [Compound 647] showed an EC50 of 100 to 1000 nM. With `CCc1cc(=O)oc2nc(OCc3ccc(C)c(C(F)(F)F)c3)[nH]c(=O)c12` [Compound 516] the EC50 was > 1000 nM. Work on `COCCCc1cc(=O)oc2[nH]c(=O)[nH]c(=O)c12` [Compound 209] yielded an EC50 of 100 to 1000 nM. In the case of `CCOC(=O)COc1nc2oc(=O)cc(CC)c2c(=O)[nH]1` [Compound 519], the EC50 is reported as > 1000 nM. `CCc1cc(=O)oc2nc(OCCN3CCCC3=O)[nH]c(=O)c12` [Compound 592] showed an EC50 of 100 to 1000 nM. Work on `CCCCc1cc(=O)oc2nc(OCC#CC(C)O)[nH]c(=O)c12` (stereo not shown) [Compound 680] yielded an EC50 of 0.001 to 100 nM. With `CCCCc1c(-c2cccc(OC)c2)c(=O)oc2[nH]c(=O)[nH]c(=O)c12` [Compound 707] the EC50 was > 1000 nM. For `COc1ccc(-c2ccc(Cc3cc(=O)oc4[nH]c(=O)[nH]c(=O)c34)cc2)cc1` [Compound 207], the EC50 was > 1000 nM. In the case of `C=COCCOc1nc2oc(=O)cc(CC)c2c(=O)[nH]1` [Compound 581], the EC50 is reported as > 1000 nM. In the case of `O=c1[nH]c(=O)c2c(CCCc3cn(Cc4ccccc4)nn3)cc(=O)oc2[nH]1` [Compound 251], the EC50 is reported as 100 to 1000 nM. `CCc1cc(=O)oc2nc(OCc3cccc(-c4ccccc4F)c3)[nH]c(=O)c12` [Compound 559] gave an EC50 of 100 to 1000 nM. `CCc1cc(=O)oc2nc(OCc3ccccc3-c3cccc(COC)c3)[nH]c(=O)c12` [Compound 549] gave an EC50 of 100 to 1000 nM. Work on `CCc1cc(=O)oc2nc(OCc3ccccc3-c3cccc(C(=O)NC)c3)[nH]c(=O)c12` [Compound 551] yielded an EC50 of 100 to 1000 nM. Work on `O=c1[nH]c(=O)c2c(CCCOC3CCC3)cc(=O)oc2[nH]1` [Compound 290] yielded an EC50 of 100 to 1000 nM. `CC(Cc1cc(=O)oc2[nH]c(=O)[nH]c(=O)c12)CC(C)(C)C` (stereo not shown) [Compound 248] was tested, and the EC50 was > 1000 nM. With `N#Cc1ccc(-c2c(CCC3CCC3)c3c(=O)[nH]c(=O)[nH]c3oc2=O)cc1` [Compound 702] the EC50 was > 1000 nM. In the case of `CCc1cc(=O)oc2nc(OCCOC(C)C)[nH]c(=O)c12` [Compound 595], the EC50 is reported as 100 to 1000 nM. `CCc1cc(=O)oc2nc(OCc3cnc(Br)s3)[nH]c(=O)c12` [Compound 608] showed an EC50 of 100 to 1000 nM. Work on `CCc1cc(=O)oc2nc(OCc3cc4cc(C)ccc4s3)[nH]c(=O)c12` [Compound 654] yielded an EC50 of 0.001 to 100 nM. With `CCCCCc1cc(=O)oc2nc(ONC(=O)OCC)[nH]c(=O)c12` [Compound 695] the EC50 was 0.001 to 100 nM. In the case of `CCc1cc(=O)oc2nc(OCc3ccc(-n4cccn4)cc3)[nH]c(=O)c12` [Compound 624], the EC50 is reported as 100 to 1000 nM. For `O=C(OCc1ccccc1)N1CCC(CCc2cc(=O)oc3[nH]c(=O)[nH]c(=O)c23)CC1` [Compound 234], the EC50 was > 1000 nM.

Same assay, conditions: NA EC50 camp (nM), CHO cells expressing recombinant human NAR; forskolin-stimulated cAMP
`CCc1cc(=O)oc2nc(OCC#CCCCO)[nH]c(=O)c12` [Compound 645] was tested, and the EC50 was 0.001 to 100 nM.

Same assay, conditions: NA EC50 camp, inhibition of forskolin-stimulated cAMP accumulation, CHO cells expressing recombinant human NAR
Work on `O=c1cc(CCC2CC2)c2c(=O)[nH]c(C(F)F)nc2o1` [Compound 752] yielded an EC50 of 248 nM.

Same assay, conditions: inhibition of forskolin-stimulated cAMP accumulation, CHO cells expressing recombinant human NAR; read-out: NA EC50 camp
`CCCCc1cc(=O)oc2[nH]c(=O)nc(OCF)c12` [Compound 788] showed an EC50 of 38.5 nM. In the case of `CCCCc1cc(=O)oc2c1c(=O)[nH]c(=O)n2N1CCOCC1` [Compound 796], the EC50 is reported as > 10000 nM. In the case of `O=c1[nH]c(=O)c2c(CC3CCCC3)cc(=O)oc2[nH]1` [Compound 104], the EC50 is reported as 47 nM. With `CCCCc1cc(=O)oc2[nH]c(=O)n(CF)c(=O)c12` [Compound 803] the EC50 was 3450 nM. With `CCn1c(=O)[nH]c2oc(=O)cc(CCCC3CC3)c2c1=O` [Compound 782] the EC50 was 94 nM. `CCC#CC(C)Oc1nc2oc(=O)cc(CCCC3CC3)c2c(=O)[nH]1` (stereo not shown) [Compound 718] was tested, and the EC50 was 162 nM. Molecule `CCCCc1cc(=O)oc2[nH]c(=O)nc(OCCF)c12` [Compound 827] has an EC50 of 690 nM. `CCC#CC(C)Oc1nc2oc(=O)cc(CC)c2c(=O)[nH]1` (stereo not shown) [Compound 730] was tested, and the EC50 was 156 nM. `O=c1cc(CCC2CC2)c2c(=O)[nH]c(OCC#CC3CC3)nc2o1` [Compound 722] gave an EC50 of 111 nM. `CCCCc1cc(=O)oc2c1c(=O)[nH]c(=O)n2OCc1ccccc1` [Compound 798] was tested, and the EC50 was > 10000 nM. `CCC#CCOc1nc2oc(=O)cc(CCCC)c2c(=O)[nH]1` [Compound 734] showed an EC50 of 71.8 nM. With `CCCCc1cc(=O)oc2c1c(=O)[nH]c(=O)n2CF` [Compound 813] the EC50 was 256 nM. `CCc1cc(=O)oc2nc(OC(C)c3ccccc3F)[nH]c(=O)c12` (stereo not shown) [Compound 90] gave an EC50 of 475 nM. Molecule `O=c1[nH]c(=O)c2c(CCC3CCCC3)cc(=O)oc2[nH]1` [Compound 125] has an EC50 of 1.2 nM. In the case of `COn1c(=O)nc(OCCF)c2c(CCC3CCC3)cc(=O)oc21` [Compound 826], the EC50 is reported as 3250 nM.
